The test system of the assay is USP11. The assay is described as follows: USP11 immunoblotting of irradiated U2OS cells (USP11 stability after DNA damage). It counts as cell-based. As to conditions: irradiated (20 Gy), inhibitor at 5 μM, USP11 immunoblot, FIG. 11g. On the procedure:
FIG. 11. Characterization of USP11 protein stability a, U2OS cells synchronized in G1 or S/G2 were treated with cyclohexamide (CHX) and processed at the indicated time points to monitor USP11 stability. b, Immunoprecipitation (IP) of PALB2 from extracts prepared from 293T cells that were synchronized in G1 or S phase and treated or not with IR (20 Gy). c, U2OS cells were irradiated with a dose of 2 or 20 Gy and processed for USP11 immunoblotting at the indicated times post-IR. Actin was used as a loading control. d, U2OS cells, mock-treated or incubated with the ATM inhibitor KU55933 (ATMi), ATR inhibitor VE-821 (ATRi) or DNA-PKcs inhibitor NU7441 (DNAPKi), were irradiated (20 Gy) and processed for USP11 and actin (loading control) immunoblotting. e, Similar experiment to d except that cells were exposed to ultraviolet (UV) radiation (50 mJ/cm^−2). f, U2OS cells, mock-treated or incubated with the proteasome inhibitor MG132, were irradiated (20 Gy) and processed for USP11 and actin (loading control) immunoblotting. g, U2OS cells, mock-treated or incubated with the Cullin inhibitor MLN4924, were irradiated (20 Gy) and processed for USP11 and actin (loading control) immunoblotting. […]
A general note: A western blot detects proteins with antibodies after separation by electrophoresis.

As to `NS(=O)(=O)OC[C@@H]1C[C@@H](n2ccc3c(N[C@H]4CCc5ccccc54)ncnc32)C[C@@H]1O` [MLN4924], the “DNA damage-induced degradation of USP11” value was “protected USP11 from DNA damage-induced degradation”.

For the origin of these results see patent publication US11261466B2, “Homologous recombination factors” (Sinai Health System, priority 2015, dated 2022).
